Source: US20230382940A1, “ANTIVIRAL COMPOUNDS AND METHODS OF MAKING AND USING THE SAME” (Gilead Sciences, Inc., priority 2022, published 2023)

Test system: Human Rhinovirus 16 (HRV16)
Experiment: H1-HeLa HRV-CTG 384-well assay, HRV16, Example X
Format: cell-based
Details: Rhinovirus A, 96 h; H1-HeLa cells, HRV16 MOI 0.25, 4 days, Celltiter-Glo; read-out: EC50 H1-HeLa_HRV 16_HRV-CTG 384-well Assay (per Ex. X)
Excerpt: Example X: H1-HeLa HRV-CTG 384-Well Assay
H1-Hela cell line (ATCC, Manassas, VA, Cat #CRL-1958) was maintained in Dulbecco's […] (DMEM) (Corning, New York, NY, Cat #15-018CM) supplemented with 10% fetal bovine serum (FBS) (Hyclone, Logan, UT, Cat #SH30071-03), and 1× Penicillin-Streptomycin-L-Glutamine (Corning, New York, NY, Cat #30-009-CI). Cells were passaged 2 times per week to maintain sub-confluent densities and were used for experiments at passage 5-30. The Human Rhinovirus 1B (HRV1B) (ATCC, Manassas, VA, Cat #VR-1645), Human Rhinovirus 14 (HRV14) (ATCC, Manassas, VA, Cat #VR-284), and Human Rhinovirus 16 (HRV16) (ATCC, Manassas, VA, Cat #BR-283) was obtained through ATCC. Viral infection was monitored by determining viability of H1-HeLa cells as described below.
Test molecules are prepared in 100% DMSO in 384-well polypropylene plates (Greiner, Monroe, NC, Cat #784201) with 8 compounds per plate in grouped replicates of 4 at 10 serially diluted concentrations (1:3). The serially diluted compounds were transferred to low dead volume Echo plates (Labcyte, Sunnyvale, CA, Cat #LP-0200).
The test compounds were spotted to 384-well assay plates (Greiner, Monroe, NC, Cat #781091) at 200 nL per well using an Echo acoustic dispenser (Labcyte, Sunnyvale, CA). H1-HeLa cells were harvested and suspended in DMEM (supplemented with 2% FBS and 1× Penicillin-Streptomycin-L-Glutamine) and seeded to the pre-spotted assay plates at 5,000 cells per well in 30 μL. HRV1B, HRV14, and HRV16 was diluted in DMEM (supplemented with 2% FBS and 1× Penicillin-Streptomycin-L-Glutamine) at 97.1 million Infectious Units (IU) per mL, 151 million IU per mL and 221 million IU per mL respectively. 10 μL of virus per well was added to the assay plates containing cells and compounds, for an MOI of 0.5, 1.0, and 0.25 respectively. The assay plates were incubated for 4 days at 37° C. and 5% CO2. At the end of incubation, Celltiter-Glo (Promega, Madison, WI, Cat #G7573) was prepared. The assay plates and Celltiter-Glo reagent were equilibrated to room temperature for at least 15 minutes. 40 μL per well of Celltiter-Glo reagent was added and the plates were incubated at room temperature for 15 minutes before reading the luminescence signal on an EnVision multimode plate reader (Perkin Elmer, Waltham, MA). Rupintrivir was used as positive control and DMSO was used as negative control. Values were normalized to the positive and negative controls (as 0% and 100% replication, respectively) and data was fitted using non-linear regression analysis by Gilead's dose response tool. The EC50 value for each compound was defined as the concentration reducing viral replication by 50%.

N#C[C@]1(COC(=O)OCCc2ccccc2)O[C@@H](c2ccc3c(N)ncnn23)[C@H](O)[C@@H]1O [Compound 5, ((2R,3S,4R,5S)-5-(4-aminopyrrolo[2,1-f][1,2,4]triazin-7-yl)-2-cyano-3,4-dihydroxytetrahydrofuran-2-yl)methyl phenethyl carbonate]
EC50: 11.2 µM

CC(C)CCOC(=O)OC[C@@]1(C#N)O[C@@H](c2ccc3c(N)ncnn23)[C@H](O)[C@@H]1O [Compound 7, ((2R,3S,4R,5S)-5-(4-aminopyrrolo[2,1-f][1,2,4]triazin-7-yl)-2-cyano-3,4-dihydroxytetrahydrofuran-2-yl)methyl isopentyl carbonate]
EC50: 9.13 µM

CC(C)COC(=O)Nc1ncnn2c([C@@H]3O[C@](C#N)(CO)[C@@H](O)[C@H]3O)ccc12 [Compound 16, Isobutyl (7-((2S,3R,4S,5R)-5-cyano-3,4-dihydroxy-5-(hydroxymethyl)tetrahydrofuran-2-yl)pyrrolo[2,1-f][1,2,4]triazin-4-yl)carbamate]
EC50: 50 µM

N#C[C@]1(COC(=O)OC2CCC2)O[C@@H](c2ccc3c(N)ncnn23)[C@H](O)[C@@H]1O [Compound 17, ((2R,3S,4R,5S)-5-(4-aminopyrrolo[2,1-f][1,2,4]triazin-7-yl)-2-cyano-3,4-dihydroxytetrahydrofuran-2-yl)methyl cyclobutyl carbonate]
EC50: 15.1 µM

CCCCCCOC(=O)OC[C@@]1(C#N)O[C@@H](c2ccc3c(N)ncnn23)[C@H](O)[C@@H]1O [Compound 19, ((2R,3S,4R,5S)-5-(4-aminopyrrolo[2,1-f][1,2,4]triazin-7-yl)-2-cyano-3,4-dihydroxytetrahydrofuran-2-yl)methyl hexyl carbonate]
EC50: 8.39 µM

CCCCCOC(=O)OC[C@@]1(C#N)O[C@@H](c2ccc3c(N)ncnn23)[C@H](O)[C@@H]1O [Compound 20, ((2R,3S,4R,5S)-5-(4-aminopyrrolo[2,1-f][1,2,4]triazin-7-yl)-2-cyano-3,4-dihydroxytetrahydrofuran-2-yl)methyl pentyl carbonate]
EC50: 9.58 µM

N#C[C@]1(COC(=O)OC2CCCCC2)O[C@@H](c2ccc3c(N)ncnn23)[C@H](O)[C@@H]1O [Compound 21, ((2R,3S,4R,5S)-5-(4-aminopyrrolo[2,1-f][1,2,4]triazin-7-yl)-2-cyano-3,4-dihydroxytetrahydrofuran-2-yl)methyl cyclohexyl carbonate]
EC50: 26.7 µM

CCOC(=O)OC[C@@]1(C#N)O[C@@H](c2ccc3c(N)ncnn23)[C@H](O)[C@@H]1O [Compound 22, ((2R,3S,4R,5S)-5-(4-aminopyrrolo[2,1-f][1,2,4]triazin-7-yl)-2-cyano-3,4-dihydroxytetrahydrofuran-2-yl)methyl ethyl carbonate]
EC50: 26.3 µM

N#C[C@]1(COC(=O)OC2CC2)O[C@@H](c2ccc3c(N)ncnn23)[C@H](O)[C@@H]1O [Compound 23, ((2R,3S,4R,5S)-5-(4-aminopyrrolo[2,1-f][1,2,4]triazin-7-yl)-2-cyano-3,4-dihydroxytetrahydrofuran-2-yl)methyl cyclopropyl carbonate]
EC50: 9.64 µM

CC[C@H](C)COC(=O)OC[C@@]1(C#N)O[C@@H](c2ccc3c(N)ncnn23)[C@H](O)[C@@H]1O [Compound 28, ((2R,3S,4R,5S)-5-(4-aminopyrrolo[2,1-f][1,2,4]triazin-7-yl)-2-cyano-3,4-dihydroxytetrahydrofuran-2-yl)methyl ((S)-2-methylbutyl) carbonate]
EC50: 9.51 µM

N#C[C@]1(COC(=O)OCc2ccccc2)O[C@@H](c2ccc3c(N)ncnn23)[C@H](O)[C@@H]1O [Compound 29, ((2R,3S,4R,5S)-5-(4-aminopyrrolo[2,1-f][1,2,4]triazin-7-yl)-2-cyano-3,4-dihydroxytetrahydrofuran-2-yl)methyl benzyl carbonate]
EC50: 9.86 µM

N#C[C@]1(COC(=O)OCC2CCCC2)O[C@@H](c2ccc3c(N)ncnn23)[C@H](O)[C@@H]1O [Compound 30, ((2R,3S,4R,5S)-5-(4-aminopyrrolo[2,1-f][1,2,4]triazin-7-yl)-2-cyano-3,4-dihydroxytetrahydrofuran-2-yl)methyl (cyclopentylmethyl) carbonate]
EC50: 8.88 µM

CCC(CC)COC(=O)OC[C@@]1(C#N)O[C@@H](c2ccc3c(N)ncnn23)[C@H](O)[C@@H]1O [Compound 31, ((2R,3S,4R,5S)-5-(4-aminopyrrolo[2,1-f][1,2,4]triazin-7-yl)-2-cyano-3,4-dihydroxytetrahydrofuran-2-yl)methyl (2-ethylbutyl) carbonate]
EC50: 9.07 µM

N#C[C@]1(COC(=O)OCC2CC2)O[C@@H](c2ccc3c(N)ncnn23)[C@H](O)[C@@H]1O [Compound 32, ((2R,3S,4R,5S)-5-(4-aminopyrrolo[2,1-f][1,2,4]triazin-7-yl)-2-cyano-3,4-dihydroxytetrahydrofuran-2-yl)methyl (cyclopropylmethyl) carbonate]
EC50: 12.1 µM

CCCOCCOC(=O)OC[C@@]1(C#N)O[C@@H](c2ccc3c(N)ncnn23)[C@H](O)[C@@H]1O [Compound 34, ((2R,3S,4R,5S)-5-(4-aminopyrrolo[2,1-f][1,2,4]triazin-7-yl)-2-cyano-3,4-dihydroxytetrahydrofuran-2-yl)methyl (2-propoxyethyl) carbonate]
EC50: 12.1 µM

CC(C)(C)CCOC(=O)OC[C@@]1(C#N)O[C@@H](c2ccc3c(N)ncnn23)[C@H](O)[C@@H]1O [Compound 35, ((2R,3S,4R,5S)-5-(4-aminopyrrolo[2,1-f][1,2,4]triazin-7-yl)-2-cyano-3,4-dihydroxytetrahydrofuran-2-yl)methyl (3,3-dimethylbutyl) carbonate]
EC50: 15.1 µM

N#C[C@]1(COC(=O)OC2CC3(CCC3)C2)O[C@@H](c2ccc3c(N)ncnn23)[C@H](O)[C@@H]1O [Compound 36, ((2R,3S,4R,5S)-5-(4-aminopyrrolo[2,1-f][1,2,4]triazin-7-yl)-2-cyano-3,4-dihydroxytetrahydrofuran-2-yl)methyl spiro[3.3]heptan-2-yl carbonate]
EC50: 12 µM

CC1(C)CC(OC(=O)OC[C@@]2(C#N)O[C@@H](c3ccc4c(N)ncnn34)[C@H](O)[C@@H]2O)C1 [Compound 37, ((2R,3S,4R,5S)-5-(4-aminopyrrolo[2,1-f][1,2,4]triazin-7-yl)-2-cyano-3,4-dihydroxytetrahydrofuran-2-yl)methyl (3,3-dimethylcyclobutyl) carbonate]
EC50: 12.6 µM

COC[C@@H](C)OC(=O)OC[C@@]1(C#N)O[C@@H](c2ccc3c(N)ncnn23)[C@H](O)[C@@H]1O [Compound 38, ((2R,3S,4R,5S)-5-(4-aminopyrrolo[2,1-f][1,2,4]triazin-7-yl)-2-cyano-3,4-dihydroxytetrahydrofuran-2-yl)methyl ((R)-1-methoxypropan-2-yl) carbonate]
EC50: 40 µM

N#C[C@]1(COC(=O)O[C@@H]2C[C@@H]3C[C@@H]3C2)O[C@@H](c2ccc3c(N)ncnn23)[C@H](O)[C@@H]1O [Compound 39, ((2R,3S,4R,5S)-5-(4-aminopyrrolo[2,1-f][1,2,4]triazin-7-yl)-2-cyano-3,4-dihydroxytetrahydrofuran-2-yl)methyl ((1R,3r,5S)-bicyclo[3.1.0]hexan-3-yl) carbonate]
EC50: 22 µM

C[C@H]1CC[C@H](OC(=O)OC[C@@]2(C#N)O[C@@H](c3ccc4c(N)ncnn34)[C@H](O)[C@@H]2O)CC1 [Compound 40, ((2R,3S,4R,5S)-5-(4-aminopyrrolo[2,1-f][1,2,4]triazin-7-yl)-2-cyano-3,4-dihydroxytetrahydrofuran-2-yl)methyl ((1r,4R)-4-methylcyclohexyl) carbonate]
EC50: 29.3 µM
